What all share (format): cell-based
For assay [1], the target named is T1, recombinant human norepinephrine transporter (Homo sapiens, UniProt P23975).
T1 construct: expressed in transfected cells; host or cells: HEK293 or MDCK
Put plainly: Norepinephrine functional uptake assay for human reuptake transporter. Particulars: [3H]norepinephrine uptake, HEK293 or MDCK cells expressing human norepinephrine transporter. The method, then: Norepinephrine Functional Uptake Assay for Human Reuptake Transporter
The cells were plated before the assay. Test compound and/or vehicle was preincubated with cells in modified HEPES buffer pH 7.1 or pH 7.4 for 20 minutes at 18 to 25° C. . […] After the cells were washed to remove [^3H]norepinephrine not internalized, the cells were lysed, and the amount of tritium in the cell lysate was measured using a liquid scintillation counter to determine [^3H]norepinephrine uptake. Non-specific binding of tritium was measured in a control reaction containing 10 μM imipramine (or 10 μM nisoxetine), and was subtracted from the counts for assays to correct for non-specific binding of tritium. Reduction of [^3H]norepinephrine uptake by 50 percent or more (≧50%) relative to an uninhibited control reaction indicates significant inhibitory activity.

Assay [2] has as its target T2, recombinant human dopamine transporter (Homo sapiens, UniProt Q01959).
T2 construct: expressed in transfected cells; host or cells: CHO-K1 or HEK293
Put plainly: Dopamine functional uptake assay for human reuptake transporter. The method, then:
Dopamine Functional Uptake Assay for Human Reuptake Transporter
Either CHO-K1 or HEK293 cells expressing human recombinant dopamine transporter were plated before the assay. Test compound and/or vehicle was preincubated with cells in modified HEPES buffer pH 7.1 or pH 7.4 for 20 minutes at 18 to 25° C. and 50 nM [^3H]dopamine was then added for an additional timed incubation period (10 to 30 minutes). After washing the cells to remove [^3H]dopamine not internalized, the cells were lysed, and the amount of tritium in the lysate was measured using a liquid scintillation counter to determine [^3H]dopamine uptake. Non-specific binding of tritium was measured in a control reaction containing 10 μM nomifensine, and was subtracted from the counts for assays to correct for non-specific binding of tritium. Reduction of [^3H]dopamine uptake by 50 percent or more (≧50%) relative to an uninhibited control reaction indicates significant inhibitory activity.

The target in assay [3] is T3, recombinant human serotonin transporter (Homo sapiens, UniProt P31645).
T3 construct: expressed in transfected cells; host or cells: HEK-293
Description: Serotonin functional uptake assay for human reuptake transporter. Particulars: [3H]serotonin uptake, HEK-293 cells expressing human serotonin transporter; read-out: Human IC50 (nM) SERT. The method, then:
Serotonin Functional Uptake Assay for Human Reuptake Transporter
HEK-293 cells expressing human serotonin transporter were plated before the assay. […] Cells with internalized [^3H]serotonin were washed and the amount of tritium taken into cells is counted using a liquid scintillation counter to determine [^3H]serotonin uptake.

Setting [4] is: [3H]dopamine uptake, CHO-K1 or HEK293 cells expressing human dopamine transporter, read-out: Human IC50 (nM) DAT.

SMILES strings stand for the structures. Read-outs that look alike come from different tables or passages of the source.

T2 sequence (Q01959 whole entry): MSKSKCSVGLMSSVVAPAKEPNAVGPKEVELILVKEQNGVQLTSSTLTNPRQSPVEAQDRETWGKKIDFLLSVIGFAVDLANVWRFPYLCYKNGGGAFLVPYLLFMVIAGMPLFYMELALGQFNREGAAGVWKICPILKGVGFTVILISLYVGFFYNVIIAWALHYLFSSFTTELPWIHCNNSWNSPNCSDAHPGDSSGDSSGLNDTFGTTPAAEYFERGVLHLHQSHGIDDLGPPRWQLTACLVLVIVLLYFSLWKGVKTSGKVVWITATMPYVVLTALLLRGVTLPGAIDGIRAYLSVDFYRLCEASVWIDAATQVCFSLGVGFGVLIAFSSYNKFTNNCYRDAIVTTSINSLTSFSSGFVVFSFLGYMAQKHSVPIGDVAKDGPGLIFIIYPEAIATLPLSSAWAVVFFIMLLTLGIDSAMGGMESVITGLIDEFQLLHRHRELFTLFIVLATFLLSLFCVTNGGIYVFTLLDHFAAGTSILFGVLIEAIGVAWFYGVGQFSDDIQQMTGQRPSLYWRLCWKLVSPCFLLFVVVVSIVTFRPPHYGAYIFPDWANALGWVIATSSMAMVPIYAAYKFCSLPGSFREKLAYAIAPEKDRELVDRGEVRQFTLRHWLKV
T1 sequence (P23975 whole entry): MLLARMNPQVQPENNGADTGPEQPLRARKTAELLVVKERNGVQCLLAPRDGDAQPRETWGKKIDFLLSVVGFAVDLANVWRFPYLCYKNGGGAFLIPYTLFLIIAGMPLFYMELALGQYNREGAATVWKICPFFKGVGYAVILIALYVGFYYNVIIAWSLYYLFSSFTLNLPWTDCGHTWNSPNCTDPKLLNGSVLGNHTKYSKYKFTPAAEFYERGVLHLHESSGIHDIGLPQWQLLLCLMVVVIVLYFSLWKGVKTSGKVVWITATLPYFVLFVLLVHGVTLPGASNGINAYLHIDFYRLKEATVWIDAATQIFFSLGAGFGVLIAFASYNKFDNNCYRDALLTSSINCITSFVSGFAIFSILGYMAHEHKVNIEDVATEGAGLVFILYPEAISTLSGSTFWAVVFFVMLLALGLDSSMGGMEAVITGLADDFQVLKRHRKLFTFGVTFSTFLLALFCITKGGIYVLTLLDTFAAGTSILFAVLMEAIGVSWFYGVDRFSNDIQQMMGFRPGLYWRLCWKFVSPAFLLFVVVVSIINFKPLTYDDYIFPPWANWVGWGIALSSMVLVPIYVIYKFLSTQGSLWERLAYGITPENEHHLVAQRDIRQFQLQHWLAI
T3 sequence (P31645 whole entry): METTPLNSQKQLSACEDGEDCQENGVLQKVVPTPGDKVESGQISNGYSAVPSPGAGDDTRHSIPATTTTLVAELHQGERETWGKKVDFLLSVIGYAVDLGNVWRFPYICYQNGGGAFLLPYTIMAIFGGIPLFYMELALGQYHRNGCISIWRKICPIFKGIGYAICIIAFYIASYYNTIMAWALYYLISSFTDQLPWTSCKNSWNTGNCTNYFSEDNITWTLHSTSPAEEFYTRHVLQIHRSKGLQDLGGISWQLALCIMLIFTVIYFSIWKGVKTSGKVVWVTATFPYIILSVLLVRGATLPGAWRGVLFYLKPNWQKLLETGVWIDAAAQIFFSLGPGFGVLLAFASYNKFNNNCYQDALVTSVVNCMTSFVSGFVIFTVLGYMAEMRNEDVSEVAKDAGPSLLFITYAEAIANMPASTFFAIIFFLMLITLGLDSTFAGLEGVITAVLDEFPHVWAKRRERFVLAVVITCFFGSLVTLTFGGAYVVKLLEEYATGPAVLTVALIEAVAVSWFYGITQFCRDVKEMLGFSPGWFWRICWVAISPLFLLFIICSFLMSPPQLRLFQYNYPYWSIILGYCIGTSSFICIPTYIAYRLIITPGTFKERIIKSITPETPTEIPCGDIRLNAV

The IC50 is the concentration that gives 50% inhibition. In the case of `N[C@H]1Cc2ccccc2[C@H](c2ccc(Cl)c(Cl)c2)C1` (single isomer, unassigned) [Compound 6b, [4-(3,4-dichlorophenyl)-1,2,3,4-tetrahydro-naphthalen-2-yl]-amine], the values for the concentration for half-maximal inhibition (IC50) in assay [1] (Human IC50 (nM) NET) and in assay [2] (Human IC50 (nM) DAT) were 731 nM and 408 nM, respectively.
The like results for `N[C@H]1Cc2ccccc2[C@H](c2ccc(Cl)c(Cl)c2)C1` (single isomer, unassigned) [Compound 6c, [4-(3,4-dichlorophenyl)-1,2,3,4-tetrahydro-naphthalen-2-yl]-amine] were, in that order, 855 nM and 894 nM.
For `N[C@H]1Cc2ccccc2[C@H](c2ccc(Cl)c(Cl)c2)C1` (single isomer, unassigned) [Compound 6d, [4-(3,4-dichlorophenyl)-1,2,3,4-tetrahydro-naphthalen-2-yl]-amine] the same measures were 174 nM and 175 nM.
As to `CN[C@H]1Cc2ccccc2[C@H](c2ccc(Cl)c(Cl)c2)C1` (single isomer, unassigned) [Compound 7b, 4-(3,4-dichlorophenyl)-N-methyl-1,2,3,4-tetrahydronaphthalen-2-amine], the half-maximal inhibitory concentration (IC50) in assay [2] (setting [4]) was found to be 62 nM.
The same measure, in the same setting: in the case of `CN[C@H]1Cc2ccccc2[C@H](c2ccc(Cl)c(Cl)c2)C1` (single isomer, unassigned) [Compound 7c, 4-(3,4-dichlorophenyl)-N-methyl-1,2,3,4-tetrahydronaphthalen-2-amine] it was 281 nM; in that of `CN[C@H]1Cc2ccccc2[C@H](c2ccc(Cl)c(Cl)c2)C1` (single isomer, unassigned) [Compound 7d, 4-(3,4-dichlorophenyl)-N-methyl-1,2,3,4-tetrahydronaphthalen-2-amine], 72 nM.
Turning to `CN(C)[C@H]1Cc2ccccc2[C@H](c2ccc(Cl)c(Cl)c2)C1` (single isomer, unassigned) [Compound 8b, [4-(3,4-dichlorophenyl)-1,2,3,4-tetrahydro-naphthalen-2-yl]-dimethylamine], the concentration for half-maximal inhibition (IC50) in assay [1] (Human IC50 (nM) NET) is 174 nM; in assay [2] (setting [4]) it was 176 nM.
For `CN(C)[C@H]1Cc2ccccc2[C@H](c2ccc(Cl)c(Cl)c2)C1` (single isomer, unassigned) [Compound 8c, [4-(3,4-dichlorophenyl)-1,2,3,4-tetrahydro-naphthalen-2-yl]-dimethylamine] the same measures were 164 nM and 273 nM.
For `CN(C)[C@H]1Cc2ccccc2[C@H](c2ccc(Cl)c(Cl)c2)C1` (single isomer, unassigned) [Compound 8d, [4-(3,4-dichlorophenyl)-1,2,3,4-tetrahydro-naphthalen-2-yl]-dimethylamine] the same measures were 98 nM and 319 nM.
For `CNC[C@H]1Cc2ccccc2[C@H](c2ccc(Cl)c(Cl)c2)C1` (single isomer, unassigned) [Compound 15b, [4-(3,4-dichlorophenyl)-1,2,3,4-tetrahydro-naphthalen-2-ylmethyl]-methylamine] the same measures were 126 nM and 103 nM.
With `CNC[C@H]1Cc2ccccc2[C@H](c2ccc(Cl)c(Cl)c2)C1` (single isomer, unassigned) [Compound 15c, [4-(3,4-dichlorophenyl)-1,2,3,4-tetrahydro-naphthalen-2-ylmethyl]-methylamine], the IC50 in assay [1] (Human IC50 (nM) NET) was found to be 210 nM; in assay [2] (setting [4]), 111 nM.
As for `CNC[C@H]1Cc2ccccc2[C@H](c2ccc(Cl)c(Cl)c2)C1` (single isomer, unassigned) [Compound 15d, [4-(3,4-dichlorophenyl)-1,2,3,4-tetrahydro-naphthalen-2-ylmethyl]-methylamine], the values for the concentration for half-maximal inhibition (IC50) in assay [1] (Human IC50 (nM) NET) and in assay [2] (setting [4]) were 372 nM and 484 nM, respectively.
Regarding `CN(C)CC1Cc2ccccc2C(c2ccc(Cl)c(Cl)c2)C1` (single isomer, unassigned) [Compound 16a, [4-(3,4-dichlorophenyl)-1,2,3,4-tetrahydro-naphthalen-2-ylmethyl]-dimethylamine], in assay [1] (Human IC50 (nM) NET), the half-inhibitory concentration (IC50) worked out at 565 nM.
On the same count and under the same terms, with `CN(C)CC1Cc2ccccc2C(c2ccc(Cl)c(Cl)c2)C1` (single isomer, unassigned) [Compound 16b, [4-(3,4-dichlorophenyl)-1,2,3,4-tetrahydro-naphthalen-2-ylmethyl]-dimethylamine] the figure was 309 nM.
As to `CN(C)C1CC(c2ccc(Cl)c(Cl)c2)c2ccccc2C1O` (single isomer, unassigned) [Compound 23a, 4-(3,4-dichlorophenyl)-2-(dimethylamino)-1,2,3,4-tetrahydronaphthalen-1-ol], the IC50 is 117 nM in assay [3], 710 nM in assay [1] (read-out: Human IC50 (nM) NET) and 371 nM in assay [2] (setting [4]).
Turning to `CN(C)C1CC(c2ccc(Cl)c(Cl)c2)c2ccccc2C1O` (single isomer, unassigned) [Compound 23b, 4-(3,4-dichlorophenyl)-2-(dimethylamino)-1,2,3,4-tetrahydronaphthalen-1-ol], the half-inhibitory concentration (IC50) came to 1300 nM in assay [3], 48 nM in assay [1] (Human IC50 (nM) NET) and 67 nM in assay [2] (setting [4]).
As for `CN[C@H]1CCc2ccccc2[C@H]1c1ccc(Cl)c(Cl)c1` (single isomer, unassigned) [Compound 36a, 1-(3,4-dichlorophenyl)-N-methyl-1,2,3,4-tetrahydronaphthalen-2-amine], the values for the IC50 in assay [1] (read-out: Human IC50 (nM) NET) and in assay [2] (setting [4]) were 3450 nM and 511 nM, respectively.
Turning to `CN[C@H]1CCc2ccccc2[C@H]1c1ccc(Cl)c(Cl)c1` (single isomer, unassigned) [Compound 36b, 1-(3,4-dichlorophenyl)-N-methyl-1,2,3,4-tetrahydronaphthalen-2-amine], the half-maximal inhibitory concentration (IC50) in assay [1] (read-out: Human IC50 (nM) NET) came to 7090 nM.
On to `CN[C@H]1CCc2ccccc2[C@H]1c1ccc(Cl)c(Cl)c1` (single isomer, unassigned) [Compound 36c, 1-(3,4-dichlorophenyl)-N-methyl-1,2,3,4-tetrahydronaphthalen-2-amine], for which the concentration for half-maximal inhibition (IC50) in assay [1] (read-out: Human IC50 (nM) NET) stood at 745 nM; in assay [2] (setting [4]), 88 nM.
As to `CN[C@H]1CCc2ccccc2[C@H]1c1ccc(Cl)c(Cl)c1` (stereo in doubt) [Compound 36d, 1-(3,4-dichlorophenyl)-N-methyl-1,2,3,4-tetrahydronaphthalen-2-amine], the IC50 in assay [1] (read-out: Human IC50 (nM) NET) came to 1620 nM; in assay [2] (setting [4]), 204 nM.
With `N[C@H]1Cc2ccccc2[C@H](c2ccc(Cl)c(Cl)c2)C1` [Compound 6a, [4-(3,4-dichlorophenyl)-1,2,3,4-tetrahydro-naphthalen-2-yl]-amine], the results for the 50% inhibitory concentration (IC50) in assay [1] (read-out: Human IC50 (nM) NET) and in assay [2] (read-out: Human IC50 (nM) DAT) were 124 nM and 350 nM, respectively.
Consider `CN[C@H]1Cc2ccccc2[C@H](c2ccc(Cl)c(Cl)c2)C1` [Compound 7a, 4-(3,4-dichlorophenyl)-N-methyl-1,2,3,4-tetrahydronaphthalen-2-amine], for which, in assay [2] (setting [4]), the IC50 amounted to 114 nM.
For `CN(C)[C@H]1Cc2ccccc2[C@H](c2ccc(Cl)c(Cl)c2)C1` [Compound 8a, [4-(3,4-dichlorophenyl)-1,2,3,4-tetrahydro-naphthalen-2-yl]-dimethylamine], the half-inhibitory concentration (IC50) turned out to be 167 nM in assay [1] (read-out: Human IC50 (nM) NET) and 454 nM in assay [2] (setting [4]).
For `CNC[C@H]1Cc2ccccc2[C@H](c2ccc(Cl)c(Cl)c2)C1` [Compound 15a, [4-(3,4-dichlorophenyl)-1,2,3,4-tetrahydro-naphthalen-2-ylmethyl]-methylamine] the same measures were 72 nM and 125 nM.
